Measured values reported in patent publication US11420970B1 (NOVARTIS AG, priority 2019, dated 2022).
Read-outs that look alike come from different tables or passages of the source.

How the values were obtained:
[1] = biological target: NSD2 [1-1365] (Homo sapiens (Human), UniProt O96028); test: LC-MS/MS-based NSD2 enzymatic assay (SAH production); type: biochemical; settings: read-out: NSD2 IC50
Method in brief: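 SAH formed was measured by LC-MS/MS using d4-SAH as internal standard and an SAH calibration curve. Compounds were preincubated 20 min with NSD2 [1-1365] and SAM; mouse-liver nucleosome then started a 90 min room-temperature reaction (8 nM enzyme, 1 μM SAM, 400 nM nucleosome final, pH 8.0), stopped with TFA.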

[2] = system: cellular H3K36me2 level in multiple myeloma cell line KMS11 (t(4;14)+); test: H3K36me2 cellular FRET assay in KMS11-Par line; type: cell-based; settings: Homo sapiens, KMS-11, KMS11-Par line, cellular H3K36me2 level, FRET; read-out: H3K36me2 FRET in KMS11-Par
Procedure: H3K36Me2 Cellular FRET Assay in KMS11-Par Line
Fluorescence Resonance Energy Transfer (FRET) assay was used to test the ability of candidate compound to reduce cellular H3K36me2 level in multiple myeloma cell line KMS11 (t(4;14)+) (Horizon Discovery Ltd.).
Cells were treated with tested compounds at the desired concentration for 48 hours. […] Histone extract was incubated with Eu labeled anti-H3K36me2 antibody (abcam #ab ab9049) and d2 labeled anti-H3 antibody (abcam #ab1791) for 1 hour at room temperature. A Eu labeled anti-H3 antibody (CISBIO #64CUS000) was used for loading control. The abundancy of H3K36me2 or total H3 was measured by fluorescence signal on Perkin Elmer Envison machine.

[3] = system: cellular H3K36me2 level in thyroid carcinoma cell line CGTH-W-1 (NSD2 E1099K); test: H3K36me2 cellular ELISA assay in CGTH-W-1 line; type: cell-based; settings: Homo sapiens, CGTH-W-1, 72 h, read-out: H3K36me2 ELISA in CGTH-W-1
Method in brief: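 After 72 h compound treatment of NSD2 E1099K-mutant CGTH-W-1 cells, H3K36me2 and total H3 were quantified by ELISA with chemiluminescent read-out. A parallel-seeded plate gave cell viability by CellTiter-Glo.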

[4] = system: cellular H3K36me2 level in multiple myeloma cell line KMS11 (t(4;14)+); test: H3K36me2 cellular ELISA assay in KMS11-Par line; type: cell-based; settings: Homo sapiens, KMS-11; KMS11-Par line, ELISA, 72 hours; read-out: H3K36me2 ELISA in KMS11-Par
Method in brief: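 After 72 h compound exposure, HCl-extracted histones from KMS11 (t(4;14)+) cells were probed by ELISA for H3K36me2 against total H3 with a chemiluminescence read-out. Cells were plated at 1,250/well in Opti-MEM plus B-27 and N2 the day before. A parallel CellTiter-Glo plate tracked viability.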

[5] = NSD2 biochemical activity, class symbols

NSD2 [1-1365], sequence (O96028 whole entry): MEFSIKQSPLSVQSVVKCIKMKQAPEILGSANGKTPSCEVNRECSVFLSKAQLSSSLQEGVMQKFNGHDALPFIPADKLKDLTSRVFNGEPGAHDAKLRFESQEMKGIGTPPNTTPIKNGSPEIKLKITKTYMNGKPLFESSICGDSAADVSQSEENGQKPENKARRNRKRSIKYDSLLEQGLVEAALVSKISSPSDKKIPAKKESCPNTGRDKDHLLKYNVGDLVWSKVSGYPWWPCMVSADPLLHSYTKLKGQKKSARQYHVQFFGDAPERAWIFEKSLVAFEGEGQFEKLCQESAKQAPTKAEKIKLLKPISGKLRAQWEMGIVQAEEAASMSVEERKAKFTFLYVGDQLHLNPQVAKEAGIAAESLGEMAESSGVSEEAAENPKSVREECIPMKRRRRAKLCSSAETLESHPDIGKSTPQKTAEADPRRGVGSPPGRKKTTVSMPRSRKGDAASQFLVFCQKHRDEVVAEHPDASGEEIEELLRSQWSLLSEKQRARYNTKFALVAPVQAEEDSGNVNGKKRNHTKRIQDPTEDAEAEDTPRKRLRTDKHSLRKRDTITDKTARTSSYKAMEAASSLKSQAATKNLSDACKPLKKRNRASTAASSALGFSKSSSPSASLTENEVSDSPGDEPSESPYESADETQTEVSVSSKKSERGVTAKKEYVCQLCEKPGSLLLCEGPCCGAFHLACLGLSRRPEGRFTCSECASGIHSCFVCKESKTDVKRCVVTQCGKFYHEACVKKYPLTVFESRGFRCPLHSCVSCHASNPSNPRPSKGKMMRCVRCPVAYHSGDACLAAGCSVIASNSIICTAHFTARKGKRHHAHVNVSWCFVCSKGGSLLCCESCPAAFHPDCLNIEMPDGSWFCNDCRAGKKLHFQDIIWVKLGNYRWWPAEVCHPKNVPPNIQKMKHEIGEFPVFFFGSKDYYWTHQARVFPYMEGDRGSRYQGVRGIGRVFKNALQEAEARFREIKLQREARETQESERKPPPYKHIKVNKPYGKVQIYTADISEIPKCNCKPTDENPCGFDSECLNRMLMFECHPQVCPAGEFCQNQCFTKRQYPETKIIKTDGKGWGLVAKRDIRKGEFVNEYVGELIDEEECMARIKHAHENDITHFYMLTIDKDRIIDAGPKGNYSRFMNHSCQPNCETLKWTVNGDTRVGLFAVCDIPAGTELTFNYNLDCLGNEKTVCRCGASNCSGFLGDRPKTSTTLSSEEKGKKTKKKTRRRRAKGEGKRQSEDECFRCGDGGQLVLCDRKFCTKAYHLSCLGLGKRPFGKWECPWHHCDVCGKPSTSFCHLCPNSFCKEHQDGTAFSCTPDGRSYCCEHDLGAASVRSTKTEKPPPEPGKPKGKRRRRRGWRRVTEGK

| IC50 [1, 5] [µM] | IC50 [2] [µM] | SMILES | IC50 [1] [µM] | IC50 [3] [µM] | IC50 [4] [µM] |
| --- | --- | --- | --- | --- | --- |
| 0.01 to 1 | 4.12 | Nc1ncnc2c1ncn2Cc1cc(-c2cccc(F)c2)ncc1N1CCC[C@@H](N)C1 [Example 4, (R)-9-((5-(3-aminopiperidin-1-yl)-2-(3-fluorophenyl)pyridin-4-yl)methyl)-9H-purin-6-amine] |  |  |  |
| 0.01 to 1 | 9.9 | COC[C@@H]1[C@H](N)CCCN1c1cnc(-c2ccc(C#N)c(F)c2)cc1Cn1cnc2c(N)ncnc21 [Example 9] |  |  |  |
| 0.01 to 1 | 2.95 | COc1ccc(-c2cc(Cn3cnc4c(N)ncnc43)c(N3CCC[C@@](C)(N)C3)cn2)cc1F [Example 20, (R)-9-((5-(3-amino-3-methylpiperidin-1-yl)-2-(3-fluoro-4-methoxyphenyl)pyridin-4-yl)methyl)-9H-purin-6-amine] |  |  |  |
| 0.001 to 0.01 | 0.214 | Nc1ncnc2c1ncn2Cc1cc(-c2ccc(F)c(F)c2)ncc1N1CCC[C@](N)(COC2CC2)C1 [Example 22, (R)-9-((5-(3-amino-3-(cyclopropoxymethyl)piperidin-1-yl)-2-(3,4-difluorophenyl)pyridin-4-yl)methyl)-9H-purin-6-amine] |  |  |  |
| 0.001 to 0.01 | 0.16 | COC[C@@]1(N)CCCN(c2cnc(-c3ccc(F)c(F)c3)cc2Cn2cnc3c(N)ncnc32)C1 [Example 23, (R)-9-((5-(3-amino-3-(methoxymethyl)piperidin-1-yl)-2-(3,4-difluorophenyl)pyridin-4-yl)methyl)-9H-purin-6-amine] |  |  |  |
| 0.001 to 0.01 | 0.451 | COC[C@@]1(N)CCCN(c2cnc(-c3cccc(F)c3)cc2Cn2cnc3c(N)ncnc32)C1 [Example 24, (R)-9-((5-(3-amino-3-(methoxymethyl)piperidin-1-yl)-2-(3-fluorophenyl)pyridin-4-yl)methyl)-9H-purin-6-amine] |  |  |  |
| 0.001 to 0.01 | 0.995 | COc1ccc(-c2cc(Cn3cnc4c(N)ncnc43)c(N3CCC[C@](N)(COC(C)C)C3)cn2)cc1F [Example 25, (R)-9-((5-(3-amino-3-(isopropoxymethyl)piperidin-1-yl)-2-(3-fluoro-4-methoxyphenyl)pyridin-4-yl)methyl)-9H-purin-6-amine] |  |  |  |
| 0.001 to 0.01 | 0.501 | COC[C@@]1(N)CCCN(c2cnc(-c3cccc(Cl)c3)cc2Cn2cnc3c(N)ncnc32)C1 [Example 27, (R)-9-((5-(3-amino-3-(methoxymethyl)piperidin-1-yl)-2-(3-chlorophenyl)pyridin-4-yl)methyl)-9H-purin-6-amine] |  |  |  |
| 0.001 to 0.01 | 0.225 | COC[C@@]1(N)CCCN(c2cnc(-c3ccc(F)cc3F)cc2Cn2cnc3c(N)ncnc32)C1 [Example 29, (R)-9-((5-(3-amino-3-(methoxymethyl)piperidin-1-yl)-2-(2,4-difluorophenyl)pyridin-4-yl)methyl)-9H-purin-6-amine] |  |  |  |
| 0.001 to 0.01 | 1.03 | COC[C@@]1(N)CCCN(c2cnc(-c3ccc(OC)cc3F)cc2Cn2cnc3c(N)ncnc32)C1 [Example 33, (R)-9-((5-(3-amino-3-(methoxymethyl)piperidin-1-yl)-2-(2-fluoro-4-methoxyphenyl)pyridin-4-yl)methyl)-9H-purin-6-amine] |  |  |  |
| 0.001 to 0.01 | 1.03 | CC(C)OC[C@@]1(N)CCCN(c2cnc(-c3ccc(F)c(F)c3)cc2Cn2cnc3c(N)ncnc32)C1 [Example 34, (R)-9-((5-(3-amino-3-(isopropoxymethyl)piperidin-1-yl)-2-(3,4-difluorophenyl)pyridin-4-yl)methyl)-9H-purin-6-amine] |  |  |  |

Second part, the compound before the results:

| SMILES | IC50 [1, 5] [µM] | IC50 [2] [µM] | IC50 [1] [µM] | IC50 [3] [µM] | IC50 [4] [µM] |
| --- | --- | --- | --- | --- | --- |
| Nc1ncnc2c1ncn2Cc1cc(-c2ccccc2F)ncc1N1CC[C@@H](F)[C@@H](N)C1 [Example 2, 9-((5-((3S,4R)-3-amino-4-fluoropiperidin-1-yl)-2-(2-fluorophenyl)pyridin-4-yl)methyl)-9H-purin-6-amine] | 0.01 to 1 | 11.1 |  |  |  |
| COc1ccc(-c2cc(Cn3cnc4c(N)ncnc43)c(N3CCC[C@@H](N)C3)cn2)c(F)c1 [Example 6, (R)-9-((5-(3-aminopiperidin-1-yl)-2-(2-fluoro-4-methoxyphenyl)pyridin-4-yl)methyl)-9H-purin-6-amine] | 0.01 to 1 | 10 |  |  |  |
| N#Cc1ccc(-c2cc(Cn3cnc4c(N)ncnc43)c(N3CCC[C@@H](N)C3)cn2)cc1Cl [Example 7, (R)-4-(4-((6-amino-9H-purin-9-yl)methyl)-5-(3-aminopiperidin-1-yl)pyridin-2-yl)-2-chlorobenzonitrile] | 0.01 to 1 | 15.1 |  |  |  |
| Nc1ncnc2c1ncn2Cc1cc(-c2cccc(F)c2)ncc1N1CC[C@@H](F)[C@@H](N)C1 [Example 8, 9-((5-((3S,4R)-3-amino-4-fluoropiperidin-1-yl)-2-(3-fluorophenyl)pyridin-4-yl)methyl)-9H-purin-6-amine] | 0.01 to 1 | 5.26 |  |  |  |
| COc1ccc(-c2cc(Cn3cnc4c(N)ncnc43)c(N3CC[C@@H](F)[C@@H](N)C3)cn2)c(F)c1 [Example 10, 9-((5-((3S,4R)-3-amino-4-fluoropiperidin-1-yl)-2-(2-fluoro-4-methoxyphenyl)pyridin-4-yl)methyl)-9H-purin-6-amine] | 0.01 to 1 | 7.63 |  |  |  |
| COc1ccc(-c2cc(Cn3cnc4c(N)ncnc43)c(N3CCC[C@@H](N)C3)cn2)cc1 [Example 11, (R)-9-((5-(3-aminopiperidin-1-yl)-2-(4-methoxyphenyl)pyridin-4-yl)methyl)-9H-purin-6-amine] | 0.01 to 1 | 11.2 |  |  |  |
| Nc1ncnc2c1ncn2Cc1cc(-c2cccc(Cl)c2)ncc1N1CC[C@@H](F)[C@@H](N)C1 [Example 12, 9-((5-((3S,4R)-3-amino-4-fluoropiperidin-1-yl)-2-(3-chlorophenyl)pyridin-4-yl)methyl)-9H-purin-6-amine] | 0.01 to 1 | 12.2 |  |  |  |
| N#Cc1ccc(-c2cc(Cn3cnc4c(N)ncnc43)c(N3CC[C@@H](F)[C@@H](N)C3)cn2)cc1F [Example 13, 4-(5-((3S,4R)-3-amino-4-fluoropiperidin-1-yl)-4-((6-amino-9H-purin-9-yl)methyl)pyridin-2-yl)-2-fluorobenzonitrile] | 0.01 to 1 | 20.7 |  |  |  |
| COc1ccc(-c2cc(Cn3cnc4c(N)ncnc43)c(N3CCC(OC)C(N)C3)cn2)cc1F (stereo not shown) [Example 15, 9-((5-(3-amino-4-methoxypiperidin-1-yl)-2-(3-fluoro-4-methoxyphenyl)pyridin-4-yl)methyl)-9H-purin-6-amine] | 0.01 to 1 | 18.7 |  |  |  |
| Nc1ncnc2c1ncn2Cc1cc(-c2cccc(F)c2)ncc1N1CCC(F)(F)C(N)C1 (stereo not shown) [Example 17, 9-((5-(3-amino-4,4-difluoropiperidin-1-yl)-2-(3-fluorophenyl)pyridin-4-yl)methyl)-9H-purin-6-amine] | > 1 | 154 |  |  |  |
| COc1ccc(-c2cc(Cn3cnc4c(N)ncc(Cl)c43)c(N3CCC[C@@H](N)C3)cn2)cc1F [Example 19, (R)-1-((5-(3-aminopiperidin-1-yl)-2-(3-fluoro-4-methoxyphenyl)pyridin-4-yl)methyl)-7-chloro-1H-imidazo[4,5-c]pyridin-4-amine] | 0.01 to 1 | 3.9 |  |  |  |
| COc1ccc(-c2cc(Cn3cnc4c(N)nccc43)c(N3CCC[C@@H](N)C3)cn2)cc1F [Example 21, (R)-1-((5-(3-aminopiperidin-1-yl)-2-(3-fluoro-4-methoxyphenyl)pyridin-4-yl)methyl)-1H-imidazo[4,5-c]pyridin-4-amine] | 0.01 to 1 | 20.8 |  |  |  |
| Nc1ncnc2c1ncn2Cc1cc(-c2ccc(F)c(F)c2)ncc1N1CCC[C@](N)([C@H](O)C(F)(F)F)C1 [Example 299, (S)-1-((R)-3-amino-1-(4-((6-amino-9H-purin-9-yl)methyl)-6-(3,4-difluorophenyl)pyridin-3-yl)piperidin-3-yl)-2,2,2-trifluoroethan-1-ol] |  |  | 0.01 to 1 | 1.16 | 9.83 |
| C#C[C@@]1(N)CCCN(c2cnc(-c3ccc(F)c(F)c3)cc2Cn2cnc3c(N)ncnc32)C1 [Example 304, (S)-9-((5-(3-amino-3-ethynylpiperidin-1-yl)-2-(3,4-difluorophenyl)pyridin-4-yl)methyl)-9H-purin-6-amine] |  |  | 0.01 to 1 | 0.101 | 0.592 |
| COc1ccc(-c2cc(Cn3cnc4c(N)ncnc43)c(N3CCC[C@](N)(C(F)F)C3)cn2)cc1F [Example 305, (R)-9-((5-(3-amino-3-(difluoromethyl)piperidin-1-yl)-2-(3-fluoro-4-methoxyphenyl)pyridin-4-yl)methyl)-9H-purin-6-amine] |  |  | 0.01 to 1 | 3.4 | 4.8 |
